Test results published in patent US5030449A, “Synthetic vaccine against AIDS virus” (The United States of America as represented by the …, priority 1988, dated 1991).

Tested on: HIV envelope-immune murine T cells (lymph node cells of gp160-immunized mice)
Experiment: Lymph node T-cell proliferation assay ([3H]thymidine incorporation, stimulation index)
Type: cell-based, mouse
Conditions: for S.I. (stimulation index, experimental cpm/control cpm): peptide 2 μM
Description: B10.BR/SgSn (H-2^k) and B10.D2/nSn (H-2^d) mice were obtained from the Jackson Laboratories (Bar Harbor, Me.). B10.S(9R)/Sg (H-2^t4) and B10.A(5R)/SgSn (H-2^i5) mice were bred at the NIH breeding colony from breeding pairs obtained from D. J. Stimpfling (Great Falls, Mont.) and from Jackson Laboratories. Mice from the strain B10.S(9R) and B10.A(5R) were chosen because both I-A and I-E molecules of the H-2^s and H-2^b haplotypes are expressed in these recombinant strains, whereas I-E is not expressed in nonrecombinant H-2^b and H-2^s mice.
Mice were immunized s.c. with 10-30 ug of recombinant gp160 1:1 in complete Freund's adjuvant (CFA) at the base of the tail. (The dose was determined according to the purity of the gp160 preparation.) Eight to ten days later, periaortic and inguinal lymph nodes were removed and prepared in a single-cell suspension in complete T-cell medium in accordance with the method of Berkower et al, 1984, J. Immunol., 132:1370. Lymph node cells at 4×10^5 cells per well were added to each well of flat-bottomed 96-well microtiter plates (Costar, Cambridge, Mass.). The 44 peptides were added to the wells to make a final volume of 0.2 ml of medium, and each peptide was tested in triplicate. On the fourth day of culture, 1 uCi of [^3 H]thymidine (6.7 Ci/mmol; New England Nuclear, Boston, Mass.) was added to each well. Eighteen hours later, […] incorporation into DNA, as a measure of proliferation, was determined using liquid scintillation counting. The stimulation index represents a ratio of experimental counts over background counts without antigen.
Mice of the H-2^k, H-2^d, H-^i5, and H-2^t4 haplotypes were immunized s.c. in the tail with recombinant gp160 in CFA at a dose of 20-30 ug per mouse. Eight to ten days later the mice were sacrificed, the periaortic and inguinal lymph nodes were isolated, and proliferation of lymph node cells in the presence or absence of antigen was determined as described herein supra.

## WDQSLKPCVKLTPLCV [HP-8, residues 119-134 of HIV envelope]
B10.A(5R) H-2^i5 mice
  S.I. (stimulation index, experimental cpm/control cpm): 1.51
B10.BR H-2^k mice
  S.I. (stimulation index, experimental cpm/control cpm): 2.24
B10.D2 H-2^d mice
  S.I. (stimulation index, experimental cpm/control cpm): 1.68
B10.S(9R) H-2^t4 mice
  S.I. (stimulation index, experimental cpm/control cpm): 1.23
H-2^k mice, initial screening
  T-cell proliferative response (in words): diminishing response
